PubChem BioAssay AID1963856 (Molecular Pharmacology Branch, DTP, NCI, 2024)

Tested on: LG0567-F671-PDC KRAS tumor spheroid viability
Test: Anticancer human tumor LG0567-F671-PDC patient-derived lung adenocarcinoma cell line growth inhibition [KRAS2]
Conditions: spheroids with HUVEC and MSC; for viability, T/C: stronger effect = lower value
How it was run: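 KRAS-mutant tumor cells were grown as spheroids with HUVEC endothelial cells and human MSCs as stroma. Targeted agents were tested alone and with KRAS pathway inhibitors. Doses started at or near clinical Cmax, or 10 microM, descending half-log.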

[1] = curve of first compound, second compound 0.1 µM
[2] = curve of first compound, second compound 0.316 µM
[3] = curve of first compound, second compound 1 µM
[4] = curve of first compound, second compound 3.16 µM
[5] = second compound 0.1 µM, first compound 0.0316 µM
[6] = second compound 0.1 µM, first compound 0.1 µM
[7] = second compound 0.316 µM, first compound 0.0316 µM
[8] = second compound 0.316 µM, first compound 0.1 µM
[9] = second compound 1 µM, first compound 0.0316 µM
[10] = second compound 1 µM, first compound 0.1 µM
[11] = second compound 3.16 µM, first compound 0.0316 µM
[12] = second compound 3.16 µM, first compound 0.1 µM
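Note: drug exposure lasted seven days after spheroids formed for three days.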
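Throughout, for viability, T/C: 100% = DMSO vehicle control viability.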

Which results are given for CCN1CCN(Cc2ccc(Nc3ncc(F)c(-c4cc(F)c5nc(C)n(C(C)C)c5c4)n3)nc2)CC1?
viability, T/C (compound 0.00316 µM): 97.6% [middle of 5 runs]; viability, T/C (compound 0.01 µM): 93.7% [middle of 5 runs]; viability, T/C (compound 0.0316 µM): 76.9% [middle of 5 runs]; viability, T/C (compound 0.1 µM): 71% [middle of 5 runs]; viability, T/C (compound 0.316 µM): 70.9% [middle of 5 runs]; viability, T/C (compound 1 µM): 65.2% [middle of 5 runs]; IC50 (curve of compound): > 1000 nM

Cn1ncnc1[C@H]1c2n[nH]c(=O)c3cc(F)cc(c23)N[C@@H]1c1ccc(F)cc1 + C=CC(=O)N1CCN(c2nc(OCC3CCCN3C)nc3c2CCN(c2cccc4cccc(C)c24)C3)CC1CC#N was tested. Which IC50 (curve of first compound, second compound 0.0316 µM) did it give?
The IC50 was < 0.316 nM.

What about the IC50 [1] of the same molecule?
Its IC50 is < 0.316 nM.

What about the IC50 [2] of the same molecule?
Its IC50 is < 0.316 nM.

What about the IC50 [3] of the same molecule?
The IC50 was < 0.316 nM.

What about the IC50 [4] of the same molecule?
The IC50 was < 0.316 nM.

And the viability, T/C (second compound 0.0316 µM, first compound 0.000316 µM)?
The viability, T/C was 44.2%.

And the viability, T/C (second compound 0.0316 µM, first compound 0.001 µM)?
The viability, T/C was 41.6%.

And the viability, T/C (second compound 0.0316 µM, first compound 0.00316 µM)?
Its viability, T/C is 36.3%.

What about the viability, T/C (second compound 0.0316 µM, first compound 0.01 µM) of the same molecule?
Its viability, T/C is 35.6%.

And the viability, T/C (second compound 0.0316 µM, first compound 0.0316 µM)?
The viability, T/C was 32%.

And the viability, T/C (second compound 0.0316 µM, first compound 0.1 µM)?
Its viability, T/C is 29.4%.

What about the viability, T/C (second compound 0.1 µM, first compound 0.000316 µM) of the same molecule?
The viability, T/C was 34%.

What about the viability, T/C (second compound 0.1 µM, first compound 0.001 µM) of the same molecule?
Its viability, T/C is 28.7%.

What about the viability, T/C (second compound 0.1 µM, first compound 0.00316 µM) of the same molecule?
The viability, T/C was 37.9%.

And the viability, T/C (second compound 0.1 µM, first compound 0.01 µM)?
Its viability, T/C is 27.4%.

What about the viability, T/C [5] of the same molecule?
The viability, T/C was 27.6%.

What about the viability, T/C [6] of the same molecule?
Its viability, T/C is 27.9%.

And the viability, T/C (second compound 0.316 µM, first compound 0.000316 µM)?
Its viability, T/C is 34%.

And the viability, T/C (second compound 0.316 µM, first compound 0.001 µM)?
Its viability, T/C is 35.5%.

And the viability, T/C (second compound 0.316 µM, first compound 0.00316 µM)?
The viability, T/C was 25.3%.

What about the viability, T/C (second compound 0.316 µM, first compound 0.01 µM) of the same molecule?
Its viability, T/C is 25.8%.

And the viability, T/C [7]?
The viability, T/C was 29.6%.

What about the viability, T/C [8] of the same molecule?
The viability, T/C was 30.8%.

What about the viability, T/C (second compound 1 µM, first compound 0.000316 µM) of the same molecule?
Its viability, T/C is 41.2%.

And the viability, T/C (second compound 1 µM, first compound 0.001 µM)?
The viability, T/C was 32.9%.

What about the viability, T/C (second compound 1 µM, first compound 0.00316 µM) of the same molecule?
The viability, T/C was 35.3%.

What about the viability, T/C (second compound 1 µM, first compound 0.01 µM) of the same molecule?
The viability, T/C was 26.7%.

What about the viability, T/C [9] of the same molecule?
The viability, T/C was 26.1%.

And the viability, T/C [10]?
Its viability, T/C is 24.9%.

And the viability, T/C (second compound 3.16 µM, first compound 0.000316 µM)?
Its viability, T/C is 14.8%.

What about the viability, T/C (second compound 3.16 µM, first compound 0.001 µM) of the same molecule?
The viability, T/C was 16.5%.

And the viability, T/C (second compound 3.16 µM, first compound 0.00316 µM)?
Its viability, T/C is 15.4%.

And the viability, T/C (second compound 3.16 µM, first compound 0.01 µM)?
Its viability, T/C is 16.1%.

What about the viability, T/C [11] of the same molecule?
The viability, T/C was 10.8%.

What about the viability, T/C [12] of the same molecule?
Its viability, T/C is 9.1%.

What does the source list for CC1(C)CCC(CN2CCN(c3ccc(C(=O)NS(=O)(=O)c4ccc(NCC5CCOCC5)c([N+](=O)[O-])c4)c(Oc4cnc5[nH]ccc5c4)c3)CC2)=C(c2ccc(Cl)cc2)C1 + C=CC(=O)N1CCN(c2nc(=O)n(-c3c(C)ccnc3C(C)C)c3nc(-c4c(O)cccc4F)c(F)cc23)C(C)C1?
IC50 [1]: < 31.6 nM; IC50 [2]: < 31.6 nM; IC50 [3]: < 31.6 nM; IC50 [4]: < 31.6 nM; IC50 (curve of first compound, second compound 10 µM): < 31.6 nM; viability, T/C [5]: 31.9%; viability, T/C [6]: 28.1%; viability, T/C (second compound 0.1 µM, first compound 0.316 µM): 26.2%; viability, T/C (second compound 0.1 µM, first compound 1 µM): 25.7%; viability, T/C (second compound 0.1 µM, first compound 3.16 µM): 11.7%; viability, T/C (second compound 0.1 µM, first compound 10 µM): 2.83%; viability, T/C [7]: 27.2%; viability, T/C [8]: 28.8%; viability, T/C (second compound 0.316 µM, first compound 0.316 µM): 25.4%; viability, T/C (second compound 0.316 µM, first compound 1 µM): 23.1%; viability, T/C (second compound 0.316 µM, first compound 3.16 µM): 16.5%; viability, T/C (second compound 0.316 µM, first compound 10 µM): 6.09%; viability, T/C [9]: 27.2%; viability, T/C [10]: 28.5%; viability, T/C (second compound 1 µM, first compound 0.316 µM): 25.9%; viability, T/C (second compound 1 µM, first compound 1 µM): 22.8%; viability, T/C (second compound 1 µM, first compound 3.16 µM): 11.2%; viability, T/C (second compound 1 µM, first compound 10 µM): 3.32%; viability, T/C [11]: 29%; viability, T/C [12]: 28.6%; viability, T/C (second compound 3.16 µM, first compound 0.316 µM): 27.6%; viability, T/C (second compound 3.16 µM, first compound 1 µM): 27.1%; viability, T/C (second compound 3.16 µM, first compound 3.16 µM): 11.1%; viability, T/C (second compound 3.16 µM, first compound 10 µM): 2.68%; viability, T/C (second compound 10 µM, first compound 0.0316 µM): 25.8%; viability, T/C (second compound 10 µM, first compound 0.1 µM): 26.3%; viability, T/C (second compound 10 µM, first compound 0.316 µM): 24.9%; viability, T/C (second compound 10 µM, first compound 1 µM): 25.6%; viability, T/C (second compound 10 µM, first compound 3.16 µM): 5.1%; viability, T/C (second compound 10 µM, first compound 10 µM): 6.11%
